Test results: patent EP0551200A1, “Protein phosphatase inhibitors for use in therapy” (priority 1992, dated 1993)

Legend:
human fibroblasts = test: Early protein phosphorylation changes in 32P-labeled cells, two-dimensional gel electrophoresis with computerized densitometry; type: cell-based
Method: The cells were then subjected to analysis by high resolution two-dimensional gel electrophoresis combined with computerized imaging as previously described (Guy et al, J. Biol. Chem. 266, 14343-14352, 1991).
Radiolabeling of Cells and Cell Lysis - For labeling with [³²P]orthophosphate cells were plated onto 90 mm plastic tissue culture dishes and incubated for 3 days for the cells to become confluent. Immediately before labeling, the media was removed and the cells were washed twice with 5 ml of phosphate- and serum-free media (150 mM NaCl, 5 mM MgCl₂, 5 mM KCl, 1.6 mM CaCl₂, 0.5% glucose, 10 mM Tris, 0.1% bovine serum albumin, pH 7.4) before the addition of 1 mCi/ml of [³²P]orthophosphate in 3 ml of the same media to each plate. The plates were incubated at 37°C in a humidified CO₂ incubator for 2 h before the addition of the okadaic acid or other agonists at the concentrations and for the times indicated in the figures and table. The agonists were reconstituted in aqueous buffered solution or in dimethyl sulfoxide. […] At the completion of labeling the media was removed, and the cells were rapidly washed twice with 5 ml of ice-cold phosphate-buffered saline before being solubilised in 200 µl of cytosol extraction buffer (10mM Tris-HCl, 50 mM EDTA, 50 mM NaCl, 30 mM sodium pyrophosphate, 50 mM NaF, 100µM Na₃VO₄, 0.65% Nonidet P-40, 2 mM leupeptin, 2mM phenylmethylsulfonyl fluoride, pH 7.4). The lysate was collected and centrifuged for 5 min at 14,000 rpm. The pellet containing the nuclear fraction (including the cytoskeletal-membrane fractions) was separated from the cytosolic fraction. Both fractions were lyophilized.
Two-dimensional Gel Electrophoresis - The lyophilized fractions (each of approximately 12 µg) were subjected to isoelectric focusing for 18,000 V/h with pH 3-10 ampholytes using the Millipore Investigator two-dimensional electrophoresis system (Millipore). Following this, the first-dimension gel was extruded and equilibrated in SDS buffer for 2 min before being loaded onto the second dimension 12.5% SDS-polyacrylamide gel. The gel was fixed, dried and ³²P-labeled polypeptides were located by autoradiography by using intensifying screens at -80°C. For measurement of the pH profile, carbamylated protein standards (Pharmacia LKB Biotechnology Inc.) were co-run on duplicate gels and related to proteins of known pI on previously calibrated samples. Molecular weight marker proteins from Sigma were detected by Coomassie Blue staining and marked on the autoradiogram. ³²P-Labeled 27 hsp complex prepared from human fibroblasts heat shocked at 43°C for 30 min was also used as a marker.
Quantitative Determination of Protein Phosphorylation - The amount of protein phosphorylation on autoradiographs derived from cytosolic membrane or antibody-precipitated preparations containing equal amounts of protein were analyzed by computerized densitometry using a Visage 2000 Image analysis system (BioImage Products, Ann Arbor, MI, US).
The ³²P-labeled protein spots are resolved and detected by autoradiography of the high definition two-dimensional gel electrophoresis of cytosolic extracts prepared from ³²P-labeled human fibroblasts. The radioactive spots (each representing one or more phosphoproteins) are analyzed by computerized densitometry. Each spot is arbitrarily assigned a number. […]

WISH cells = test: Early protein phosphorylation changes in WISH cells; type: cell-based, human; conditions: data not shown
Method: Cell Cultures and Reagents - Human diploid fibroblasts, FS-4, 2343 gifts from Dr. J. Vilcek (New York University). They were grown in tissue culture flasks and maintained with minimal essential medium (MEM) supplemented with 10% fetal bovine serum (Hyclone, Logan, UT, US) herein referred to as regular medium. Human WISH cells were purchased from the American Type Culture Collection. Recombinant human TNF and IL-1 with specific activities of 2 x 10⁷ units and 1 x 10⁸ units/mg protein, respectively, and of purities of ≧99% were purchased from Genzyme Corp. (Cambridge, MA, US). Phorbol 12-myristate 13-acetate, bradykinin, forskolin, dibutyryl-cyclic AMP (dBt-cAMP) and FGF were from Sigma, Okadaic acid was purchased from Biomol (Plymouth Meeting, PA, US). Radioactive [³²P]P was from Du Pont-New England Nuclear. […]
(§1) Two-dimensional Gel Electrophoresis - The lyophilized fractions (each of approximately 12 µg) were subjected to isoelectric focusing for 18,000 V/h with pH 3-10 ampholytes using the Millipore Investigator two-dimensional electrophoresis system (Millipore). […] Molecular weight marker proteins from Sigma were detected by Coomassie Blue staining and marked on the autoradiogram. ³²P-Labeled 27 hsp complex prepared from human fibroblasts heat shocked at 43°C for 30 min was also used as a marker.

27 hsp complex = test: Phosphorylation of the 27 hsp complex in the cytosolic fraction of 32P-labeled fibroblasts; type: cell-based, human
Method: Human fibroblasts prelabeled with [³²P]orthophosphate (1 mCi/ml) were incubated with increasing concentrations of OA or TNF. Cytosolic fractions were prepared from the cells and subjected to two-dimensional gel electrophoresis. a, control; b, 80 nM OA; c, 160 nM OA; d, 50 units/ml TNF; and e, 320 nM OA.
The fibroblasts were treated with 200 nM of okadaic acid for 0 min (a), 5 min (b), 15 min (c), or 30 min (d). Cytosolic fractions were prepared from the fibroblasts and analyzed by two-dimensional gel electrophoresis.
Radiolabeling of Cells and Cell Lysis - For labeling with [³²P]orthophosphate cells were plated onto 90 mm plastic tissue culture dishes and incubated for 3 days for the cells to become confluent. […]
as §1, with “marker. […]” for “marker.”

Egr-1 mRNA = test: Stability of induced Egr-1 mRNA after actinomycin D, Northern blot, Balb/c 3T3 cells; type: cell-based, mouse; conditions: actinomycin D 25 µg/ml
Method: (A). Quiescent Balb/c 3T3 cells were incubated with either 0.5 µM of okadaic acid or 20% serum for 3 h or 0.5 h, respectively. Actimomycin D (final concentration being 25 µg/ml) was then added. The cells were then harvested at 0.5, 1, 1.5, 2 and 3 h after the addition of actinomycin D. RNA was isolated from these cells and analyzed by Northern blot. The blot was probed with Egr-1 or GADPH cDNA.
Quiescent mouse Balb/c 3T3 fibroblasts were incubated with DMEM containing either 0.5µM okadaic acid or 10% fetal calf serum for the times indicated in Fig. 10. […] Cells were harvested at the indicated time points and extracted for RNA and the RNA subjected to Northern blot analysis (Fig. 10).

Egr-1 protein = type: cell-based; conditions: 2 h treatment, data not shown
Method: Quiescent human fibroblasts were stimulated with MEM containing 0.5 µM okadaic acid in the presence or absence of cycloheximide (10 µg/ml) for the times indicated in Fig. 11. […] Treatment of cells with cycloheximide enhanced the induction of Egr-1 mRNA by okadaic acid at 1.5 and 3 h (Fig. 11). Similarly puromycin, like cycloheximide, also "superinduces" the induction of the Egr-1 mRNA by okadaic acid (data not shown). […] However, in view that protein phosphatase 1 (PP1) and protein phosphatase 2A (PP2A) regulate enzymes associated with cellular protein synthesis (Cohen, Annu. Rev. Biochem. 58, 453-508, 1989) the effect of okadaic acid on protein synthesis in mouse and human fibroblasts was also measured. […] By then the Egr-1 mRNA message was already induced. A corollary to this is a comparison of the amount of ³⁵S-methionine labelled Egr-1 protein immunoprecipitated by R5232 antibodies from protein phosphatase inhibitor-treated and control cells. […] Thus, the induction of the Egr-1 gene by phosphatase inhibitors is unlikely to be mediated by their late inhibitory effects on cellular protein synthesis.

[1] = cytosolic fraction, first 15 min of ligand treatment

## C=C1[C@@H](O)[C@@H]2O[C@]3(CC[C@H](/C=C/[C@@H](C)[C@@H]4CC(C)=C[C@@]5(O[C@H](C[C@@](C)(O)C(=O)O)CC[C@H]5O)O4)O3)CC[C@H]2O[C@@H]1[C@@H](O)C[C@H](C)[C@H]1O[C@@]2(CCCCO2)CC[C@H]1C [okadaic acid]
Human fibroblasts; [1]
  number of proteins dephosphorylated: six
  number of proteins with early phosphorylation changes: about 60 proteins
Human fibroblasts; cytosolic fraction, okadaic acid, 15 min, TNF 50 units/ml
  identity of changes in early protein phosphorylation with those induced by TNF: about 95%
Human fibroblasts; nuclear/cytoskeletal membrane fraction, 46-50 proteins, 15 min
  changes in protein phosphorylation compared with TNF treatment (in words): almost identical changes
WISH cells
  changes in early protein phosphorylation compared with TNF (in words): almost identical changes
27 hsp complex; 200 nM, after 30 min
  phosphorylation state of the 27 hsp complex (in words): hyperphosphorylated
27 hsp complex; 15 min
  concentration producing about the same increase in phosphorylation of the 27 hsp complex as 50 units/ml of TNF: 160 to 320 nM
Egr-1 mRNA; 0.5 µM
  time for which induced Egr-1 mRNA is detectable after actinomycin D treatment: up to 5.5 h
Egr-1 mRNA; calculated from the data in Fig. 10
  half life of the induced Egr-1 message: about 120 min
Egr-1 protein
  amount of 35S-methionine labeled Egr-1 protein relative to control cells: 4 to 5 fold
